Results on 9 compounds are retold here after US9862711B2, “Pyrazine derivatives as phosphatidylinositol 3-kinase inhibitors” (NOVARTIS AG, priority 2014, dated 2018).

The structures appear in SMILES notation. Some results are limits rather than exact numbers.

As usually defined, the IC50 is the concentration that inhibits the measured activity by half.

Chain of Vps34 (Q8NEB9 whole entry, species assumed): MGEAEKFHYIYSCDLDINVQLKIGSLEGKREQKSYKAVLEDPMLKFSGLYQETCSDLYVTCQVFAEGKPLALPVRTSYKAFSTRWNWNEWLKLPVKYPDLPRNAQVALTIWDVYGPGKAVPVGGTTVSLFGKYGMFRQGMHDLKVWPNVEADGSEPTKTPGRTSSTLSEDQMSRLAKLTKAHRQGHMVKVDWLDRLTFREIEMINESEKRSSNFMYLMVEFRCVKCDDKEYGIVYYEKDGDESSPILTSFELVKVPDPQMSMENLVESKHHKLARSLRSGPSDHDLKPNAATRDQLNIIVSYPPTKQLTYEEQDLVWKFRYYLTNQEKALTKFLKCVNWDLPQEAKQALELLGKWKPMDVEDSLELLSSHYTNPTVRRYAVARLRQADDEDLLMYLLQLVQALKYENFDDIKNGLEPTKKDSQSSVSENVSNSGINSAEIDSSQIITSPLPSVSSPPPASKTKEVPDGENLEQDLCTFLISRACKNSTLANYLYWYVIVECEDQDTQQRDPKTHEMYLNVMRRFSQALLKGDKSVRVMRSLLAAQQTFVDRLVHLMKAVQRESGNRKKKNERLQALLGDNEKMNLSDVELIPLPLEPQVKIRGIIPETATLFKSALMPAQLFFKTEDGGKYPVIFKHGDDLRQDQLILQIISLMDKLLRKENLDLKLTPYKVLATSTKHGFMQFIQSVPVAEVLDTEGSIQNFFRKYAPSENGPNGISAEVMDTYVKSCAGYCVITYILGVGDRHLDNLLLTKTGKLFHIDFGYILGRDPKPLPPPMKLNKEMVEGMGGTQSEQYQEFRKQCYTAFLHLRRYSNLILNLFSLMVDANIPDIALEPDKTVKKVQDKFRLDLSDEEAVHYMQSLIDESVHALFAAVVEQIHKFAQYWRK

The assay deals with Vps34 (Homo sapiens (Human), UniProt Q8NEB9). In words: Kinase Glo Luminescent Kinase Assay (Assay C). Format: biochemical. The conditions noted are these: 1 μM ATP. An excerpt:
Kinase Glo Luminescent Kinase Assay (Kglo) for PI 3-Kinase Alpha (A), Pb 3-Kinase Beta (B), Vps34 (C), PI 4-Kinase Beta (D)
The luminescence-based ATP detection reagent KinaseGlo was obtained from Promega, (Cat. No. V6714, Lot No. 236161) through Catalys, Wallisellen, Switzerland. L-alpha-phosphatidylinositol (PI, liver, bovine) was obtained from Avanti Polar Lipid (Cat. No. 840042C, Lot#LPI-274), Phosphatidylinositol-4,5-bisphosphate (PIP(4,5)2) was also obtained from Avanti Polar Lipid (Cat. No. 840046X). L-α-Phosphatidylserine (PS) was obtained from Avanti Polar Lipid (Cat. No. 840032C), n-Octylglucoside from Avanti Polar Lipid (Cat. No. 10634425001). Luminescence is a well established readout to determine ATP concentrations and can thus be used to follow the activity of many kinases regardless of their substrate. The Kinase Glo Luminescent Kinase Assay (Promega, Madison/WI, USA) is a homogeneous HTS method of measuring kinase activity by quantifying the amount of ATP remaining in solution following a kinase reaction.
50 nL of compound dilutions were dispensed onto black 384-well low volume Non Binding Styrene (NBS) plates (Costar Cat. No. NBS#3676). L-α-phosphatidylinositol (PI), provided as 10 mg/ml solution in methanol, was transferred into a glass tube and dried under a nitrogen beam. It was then resuspended in 3% OctylGlucoside (1-O-n-octyl-beta-D-glucopyranoside) by vortexing and stored at 4° C. 5 μL of a mix of PI/OctylGlucoside with the PI 3-kinase alpha and PI 3-kinase beta subtypes, or Vps34 or PI 4-kinase beta were added. Kinase reactions were started by the addition of 5 μl of an ATP-mix containing in a final volume 10 μL 10 mM TRIS-HCl pH 7.5, 3 mM MgCl2, 50 mM NaCl, 0.05% CHAPS, 1 mM DTT and 1 μM ATP at room temperature. Reactions were stopped with 10 μl of KinaseGlo and plates were read 10 mins later in a Synergy2 reader using an integration time of 0.1 seconds per well. 2.5 μM of NVP-BGT226 (1-(3-(trifluoromethyl)-4-(piperazin-1-yl)phenyl)-8-(6-methoxypyridin-3-yl)-3-methyl-1H-imidazo[4,5-c]quinolin-2(3H)-one) was added to the assay plates to generate the 100% inhibition of the kinase reaction, and the 0% inhibition was given by the solvent vehicle (90% DMSO in water). (1-(3-(trifluoromethyl)-4-(piperazin-1-yl)phenyl)-8-(6-methoxypyridin-3-yl)-3-methyl-1H-imidazo[4,5-c]quinolin-2(3H)-one) was used as a reference compound and included in all assay plates in the form of 16 dilution points in duplicate.
IC50 values of the percentage inhibition of each compound at 8 concentrations (10, 3.0, 1.0, 0.3, 0.1, 0.030, 0.010 and 0.003 μM) n=2 were derived by fitting a sigmoidal dose-response curve to a plot of assay readout over inhibitor concentration as described. All fits were performed with the program XLfit4 (ID Business Solutions, Guildford, UK).
(In general: In Kinase-Glo more light means more ATP remaining.)
On to `Cc1ncc(-c2cncc(-c3cc(S(=O)(=O)NCCCO)ccc3C)n2)s1` [Example 1, N-(3-Hydroxy-propyl)-4-methyl-3-[6-(2-methyl-thiazol-5-yl)-pyrazin-2-yl]-benzenesulfonamide], for which the IC50 worked out at 3.07 µM. The same measure for `Cc1ccc(S(=O)(=O)NCC(C)(C)O)cc1-c1cncc(-c2cn(C)nc2C)n1` [Example 2, 3-[6-(1,3-Dimethyl-1H-pyrazol-4-yl)-pyrazin-2-yl]-N-(2-hydroxy-2-methyl-propyl)-4-methyl-benzenesulfonamide]: 3.45 µM; for `Cc1ccc(S(=O)(=O)NCCC(C)(C)O)cc1-c1cncc(-c2cn(C)nc2C)n1` [Example 3, 3-[6-(1,3-Dimethyl-1H-pyrazol-4-yl)-pyrazin-2-yl]-N-(3-hydroxy-3-methyl-butyl)-4-methyl-benzenesulfonamide]: 5.3 µM; for `Cc1ccc(S(=O)(=O)NCC2(C)COC2)cc1-c1cncc(-c2cn(C)nc2C)n1` [Example 4, Trans 3-[6-(1,3-Dimethyl-1H-pyrazol-4-yl)-pyrazin-2-yl]-4-methyl-N-(3-methyl-oxetan-3-ylmethyl)-benzenesulfonamide]: 4.3 µM. The same measure for `Cc1ncc(-c2cncc(-c3cc(S(=O)(=O)N[C@H]4CC[C@H](O)CC4)ccc3C)n2)s1` [Example 5, Trans N-(4-Hydroxycyclohexyl)-4-methyl-3-(6-(2-methylthiazol-5-yl)pyrazin-2-yl)benzenesulfonamide]: 1.81 µM. The same measure for `Cc1ccc(S(=O)(=O)NCC(C)(C)CO)cc1-c1cncc(-c2cn(C)nc2C)n1` [Example 8, 3-[6-(1,3-Dimethyl-1H-pyrazol-4-yl)-pyrazin-2-yl]-N-(3-hydroxy-2,2-dimethyl-propyl)-4-methyl-benzenesulfonamide]: 4.4 µM; for `Cc1ccc(S(=O)(=O)NCCC(C)(C)O)cc1-c1cncc(-c2cnn(CCN3CCOCC3)c2)n1` [Example 9, N-(3-Hydroxy-3-methyl-butyl)-4-methyl-3-{6-[1-(2-morpholin-4-yl-ethyl)-1H-pyrazol-4-yl]-pyrazin-2-yl}-benzenesulfonamide]: over 9.1 µM.

Regarding `Cc1ccc(S(=O)(=O)NCCC(C)(C)O)cc1-c1cncc(-c2cn(CCN3CCOCC3)nc2C)n1` [Example 10, N-(3-Hydroxy-3-methyl-butyl)-4-methyl-3-{6-[3-methyl-1-(2-morpholin-4-yl-ethyl)-1H-pyrazol-4-yl]-pyrazin-2-yl}-benzenesulfonamide], the half-inhibitory concentration (IC50) is over 10 µM.

Regarding `Cc1ccc(S(=O)(=O)N[C@H]2CC[C@H](O)CC2)cc1-c1cncc(-c2cccnc2)n1` [Example 11, Trans N-(4-Hydroxy-cyclohexyl)-4-methyl-3-(6-pyridin-3-yl-pyrazin-2-yl)-benzenesulfonamide], the half-inhibitory concentration (IC50) was determined as 3.08 µM.
